Test results: patent publication US8658165B2, “Method of treating aberrant mucus production in respiratory disease” (Novartis AG, priority 2007, dated 2014)

Columns and labels:
[1] = test system: Human Bronchial Epithelial Cells (HBECs); assay: Inhibition of NRG1β1-induced goblet cell formation (MUC5AC and MUC5B protein by histology) in HBECs; assay type: cell-based; settings: inhibitor at 10 μM, NRG1β1 50 nM, 7 days at ALI
Protocol: Human Bronchial epithelial cells (HBECs; Cambrex) were cultured in bronchial epithelial cell growth medium (BEGM; Cambrex) supplemented with the provided singlequots essentially as described in [Atherton et al, 2003]. For differentiation, cells were grown on 0.4 μm pore size, 12 mm TRANSWELL® inserts (Costar) at a cell density of 8.25×10^4 cells/insert in differentiation medium. Differentiation medium contained 50% BEGM and 50% Dulbeccos' modified Eagle's medium (DMEM) and was supplemented with 52 μg/ml bovine pituitary extract, 5 μg/ml insulin, 0.5 μg/ml hydrocortisone, 10 μg/ml transferrin, 0.5 μg/ml epinephrine 0.5 ng/ml human EGF, 50 μg/ml gentamicin and 50 nM retinoic acid. Cells were maintained submerged for 7 days then grown at air-liquid interface (ALI) for 7-14 days and medium was replenished every 2-3 days. […]
After 7 days (unless otherwise stated) of differentiation at ALI, the apical surface of the HBECs was washed gently with PBS and fixed with neutral buffered formalin and wax embedded. […] The area of staining was assessed using a ZEISS® Axioplan 2 microscope (×10 magnification) with an Imaging Associated KS400 image analyzer (Imaging Associates). Fourteen fields were scored for each sample. Data are presented as goblet cell density, which was defined as the ratio of stained area (μm^2) to length (μm) of epithelium scored. […]

[2] = molecular target: ErbB3 (Homo sapiens, UniProt P21860); settings: higher affinity than NRG1a; cited from earlier work
[3] = molecular target: ErbB2/ErbB3 heterodimer (Homo sapiens, UniProt P21860); settings: greater affinity than for ErbB3 homodimers; cited from earlier work
[4] = test system: Human Bronchial Epithelial Cells (HBECs); assay: Effect of NRG1 isoforms on MUC5AC and MUC5B protein (goblet cell formation) in HBECs at air-liquid interface, immunohistochemistry; assay type: cell-based; settings: HBECs at ALI, 7 days
Protocol: Human Bronchial epithelial cells (HBECs; Cambrex) were cultured in bronchial epithelial cell growth medium (BEGM; Cambrex) supplemented with the provided singlequots essentially as described in [Atherton et al, 2003]. For differentiation, cells were grown on 0.4 μm pore size, 12 mm TRANSWELL® inserts (Costar) at a cell density of 8.25×10^4 cells/insert in differentiation medium. Differentiation medium contained 50% BEGM and 50% Dulbeccos' modified Eagle's medium (DMEM) and was supplemented with 52 μg/ml bovine pituitary extract, 5 μg/ml insulin, 0.5 μg/ml hydrocortisone, 10 μg/ml transferrin, 0.5 μg/ml epinephrine 0.5 ng/ml human EGF, 50 μg/ml gentamicin and 50 nM retinoic acid. Cells were maintained submerged for 7 days then grown at air-liquid interface (ALI) for 7-14 days and medium was replenished every 2-3 days. Cells were treated with NRG1α or NRG1β1 (R&D SYSTEMS®) during the ALI culture period, added to the basolateral chamber of the TRANSWELL® inserts. At all stages cells were maintained at 37° C. in the presence of 5% CO2 in an air incubator.
After 7 days (unless otherwise stated) of differentiation at ALI, the apical surface of the HBECs was washed gently with PBS and fixed with neutral buffered formalin and wax embedded. Inserts were sectioned at 3 μm thickness and stained with either an anti-MUC5AC antibody (45M1; LABVISION®) or anti-MUC5B monoclonal antibodies using a DABMAP protocol on a VENTANA® XT immunostainer and counterstained with 1% alcian blue in 3% acetic acid, pH 2.5. The area of staining was assessed using a ZEISS® Axioplan 2 microscope (×10 magnification) with an Imaging Associated KS400 image analyzer (Imaging Associates). Fourteen fields were scored for each sample. Data are presented as goblet cell density, which was defined as the ratio of stained area (μm^2) to length (μm) of epithelium scored. Custom made anti-MUC5B monoclonal antibodies were obtained from the Hybridoma Core Laboratory, University of Florida and were raised against the peptide SWYNGHRPEPGLG (SEQ ID NO:11).

ErbB3, sequence (P21860 20-1342): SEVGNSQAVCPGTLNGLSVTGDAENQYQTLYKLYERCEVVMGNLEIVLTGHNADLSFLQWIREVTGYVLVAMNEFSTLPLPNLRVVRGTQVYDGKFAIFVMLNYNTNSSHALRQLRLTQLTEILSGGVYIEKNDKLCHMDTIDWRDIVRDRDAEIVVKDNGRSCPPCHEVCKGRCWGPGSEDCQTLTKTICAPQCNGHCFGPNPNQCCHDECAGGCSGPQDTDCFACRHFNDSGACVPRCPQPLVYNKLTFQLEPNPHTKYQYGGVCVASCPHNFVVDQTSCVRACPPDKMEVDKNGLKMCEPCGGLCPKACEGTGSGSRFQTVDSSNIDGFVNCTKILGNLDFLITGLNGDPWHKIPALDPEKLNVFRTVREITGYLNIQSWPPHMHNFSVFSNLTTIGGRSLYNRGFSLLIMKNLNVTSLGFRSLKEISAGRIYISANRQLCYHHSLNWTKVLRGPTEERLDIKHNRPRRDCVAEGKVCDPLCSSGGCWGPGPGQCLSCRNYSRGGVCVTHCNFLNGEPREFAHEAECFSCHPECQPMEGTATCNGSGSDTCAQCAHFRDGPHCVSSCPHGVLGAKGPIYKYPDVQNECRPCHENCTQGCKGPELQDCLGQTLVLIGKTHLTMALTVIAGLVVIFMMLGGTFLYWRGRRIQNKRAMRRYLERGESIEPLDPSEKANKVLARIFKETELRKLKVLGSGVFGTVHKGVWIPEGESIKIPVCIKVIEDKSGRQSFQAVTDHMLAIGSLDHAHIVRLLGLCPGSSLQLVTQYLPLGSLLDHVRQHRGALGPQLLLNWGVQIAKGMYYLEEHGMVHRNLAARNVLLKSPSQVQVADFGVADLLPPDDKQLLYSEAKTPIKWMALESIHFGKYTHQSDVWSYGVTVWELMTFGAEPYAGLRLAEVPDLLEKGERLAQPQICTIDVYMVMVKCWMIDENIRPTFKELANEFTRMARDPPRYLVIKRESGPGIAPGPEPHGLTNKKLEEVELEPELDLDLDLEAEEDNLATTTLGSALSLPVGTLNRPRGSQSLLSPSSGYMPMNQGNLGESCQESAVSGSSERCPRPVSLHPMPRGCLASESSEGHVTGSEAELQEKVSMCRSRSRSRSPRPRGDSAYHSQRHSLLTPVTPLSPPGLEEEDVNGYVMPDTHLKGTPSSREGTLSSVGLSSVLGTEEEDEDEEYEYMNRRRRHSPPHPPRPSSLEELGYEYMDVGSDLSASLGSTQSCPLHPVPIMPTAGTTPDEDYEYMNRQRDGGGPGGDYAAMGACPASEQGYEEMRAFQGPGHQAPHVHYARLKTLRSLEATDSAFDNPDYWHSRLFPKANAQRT

| Compound | effect on NRG1β1-induced increase in MUC5AC protein [1] | effect on NRG1β1-induced increase in MUC5B protein [1] | affinity for ErbB3 relative to NRG1a [2] | affinity for the ErbB2/ErbB3 heterodimer relative to ErbB3 homodimers [3] | increase in MUC5AC protein over vehicle levels ([4]; 50 nM, histology) | increase in MUC5B protein ([4]; 50 nM, immunohistochemistry) | effect on MUC5AC protein ([4]; increasing concentrations, histology) |
| --- | --- | --- | --- | --- | --- | --- | --- |
| CCN1CCN(Cc2ccc(-c3cc4c(N[C@H](C)c5ccccc5)ncnc4[nH]3)cc2)CC1 [pan-ErbB receptor inhibitor] | significantly inhibited | significantly inhibited |  |  |  |  |  |
| NRG1β1: Neuregulin-1 isoform β1 protein (R&D SYSTEMS) added to HBEC cultures |  |  | 100 fold | 100 fold | 3 fold | 9.8 fold | dose-dependent increase |
